Experiment: RealTime-Glo MT cell viability assay
Assay type: cell-based, mouse
Settings: mouse, serum-starved C2C12 cells, 24 h, serum-starved C2C12, read-out: Cell viability, percent of luminescence in control untreated cells
Experimental: To first determine how these novel compounds effect the health of C2C12 cells and to establish the range of subtoxic concentrations for future studies, cell viability assays were carried out. Serum-starved C2C12 cells were exposed to increasing concentrations (0.01–1000 µM) of SY-LB-35 and SY-LB-57 for 24 h. Exposure to Triton X-100 (125 µM) is toxic to cells and was used as a negative control for cell viability. Following the 24-h exposure period, the MT Cell viability substrate was added to the cultures. Only viable cells can reduce the substrate and, thereby, generate a luminescent signal. Any decrease in luminescence was considered an indication of cell death or toxicity.
C2C12 cells (100 µL) were seeded in a 96-well plate at 5 × 10^5 cells/mL and incubated overnight in complete growth media to achieve 80% confluency followed by serum-starvation for 16–18 h.
Next, reagents from the RealTime-Glo™ MT Cell Viability Assay Kit (Promega, Madison, WI, USA) were diluted in SS medium and used according to manufacturer’s protocol. Cellular luminescence was measured using the FilterMax F5 Multi-mode Microplate Reader (Molecular Devices, San Jose, CA, USA). Data from three independent experiments with individual experiments carried out in triplicate was determined and reported as a percentage of control.

Row | Compound | viability at 24 h, 0.01 µM [%] | viability at 24 h, 0.1 µM [%] | viability at 24 h, 1 µM [%] | viability at 24 h, 10 µM [%] | viability at 24 h, 100 µM [%] | viability at 24 h, 1 mM [%]
1 | Oc1ccc2[nH]c(-c3nc4ccccc4[nH]3)cc2c1 [SY-LB-35] | 241 | 244 | 218 | 137 | 69 | 13
2 | COc1ccc2[nH]c(-c3nc4ccccc4[nH]3)cc2c1 [SY-LB-57] | 390 | 394 | 301 | 251 | 151 | 20

Source: article PMC9287337 (Scientific Reports, 2022)
